Key:
[1] = target: T1, human glucocorticoid receptor-α [GRX] isoform (Homo sapiens, UniProt P04150); test: Radioligand binding with human glucocorticoid receptor cytosol ([3H]-dexamethasone competition); details: GRX cytosol expressed in insect SF21 cells, [3H]-Dex ~0.9 nM, 4° C. overnight; Ki by Cheng-Prusoff, KL ~[…]; read-out: Ki (nM) GR
T1 construct: host or cells: insect SF21 cells (baculovirus)
T1 sequence (P04150 1-777): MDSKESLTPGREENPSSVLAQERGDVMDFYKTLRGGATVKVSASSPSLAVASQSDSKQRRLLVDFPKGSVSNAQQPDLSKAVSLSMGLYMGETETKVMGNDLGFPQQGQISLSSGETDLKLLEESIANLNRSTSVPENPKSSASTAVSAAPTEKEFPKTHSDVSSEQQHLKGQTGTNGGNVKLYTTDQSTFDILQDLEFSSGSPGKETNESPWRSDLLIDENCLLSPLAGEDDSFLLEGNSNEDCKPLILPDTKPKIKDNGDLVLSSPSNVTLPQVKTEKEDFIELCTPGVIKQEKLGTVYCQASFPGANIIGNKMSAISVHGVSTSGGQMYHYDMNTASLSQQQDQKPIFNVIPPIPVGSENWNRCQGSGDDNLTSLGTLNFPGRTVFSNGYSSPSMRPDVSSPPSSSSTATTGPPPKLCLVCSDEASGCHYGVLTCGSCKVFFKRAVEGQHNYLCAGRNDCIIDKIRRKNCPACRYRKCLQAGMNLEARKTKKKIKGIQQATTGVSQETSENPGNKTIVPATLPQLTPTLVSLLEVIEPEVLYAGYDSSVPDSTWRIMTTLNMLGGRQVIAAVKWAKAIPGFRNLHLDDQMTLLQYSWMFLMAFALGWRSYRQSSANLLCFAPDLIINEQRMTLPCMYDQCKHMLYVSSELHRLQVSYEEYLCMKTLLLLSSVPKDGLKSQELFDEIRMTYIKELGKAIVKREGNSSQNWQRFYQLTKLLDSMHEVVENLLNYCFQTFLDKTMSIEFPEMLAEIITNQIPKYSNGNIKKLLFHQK

[2] = target: T2, human progesterone receptor-A [PRA] isoform (Homo sapiens, UniProt P06401); test: Radioligand binding with human progesterone receptor cytosol ([3H]-progesterone competition); details: PRA cytosol expressed in insect SF21 cells, [3H]Prog ~0.8 nM, 4° C. overnight; Ki by Cheng-Prusoff, KL ~4.5 nM; read-out: Ki (nM) PR
T2 construct: host or cells: insect SF21 cells (baculovirus)
T2 sequence (P06401 1-769 isoform P06401-2): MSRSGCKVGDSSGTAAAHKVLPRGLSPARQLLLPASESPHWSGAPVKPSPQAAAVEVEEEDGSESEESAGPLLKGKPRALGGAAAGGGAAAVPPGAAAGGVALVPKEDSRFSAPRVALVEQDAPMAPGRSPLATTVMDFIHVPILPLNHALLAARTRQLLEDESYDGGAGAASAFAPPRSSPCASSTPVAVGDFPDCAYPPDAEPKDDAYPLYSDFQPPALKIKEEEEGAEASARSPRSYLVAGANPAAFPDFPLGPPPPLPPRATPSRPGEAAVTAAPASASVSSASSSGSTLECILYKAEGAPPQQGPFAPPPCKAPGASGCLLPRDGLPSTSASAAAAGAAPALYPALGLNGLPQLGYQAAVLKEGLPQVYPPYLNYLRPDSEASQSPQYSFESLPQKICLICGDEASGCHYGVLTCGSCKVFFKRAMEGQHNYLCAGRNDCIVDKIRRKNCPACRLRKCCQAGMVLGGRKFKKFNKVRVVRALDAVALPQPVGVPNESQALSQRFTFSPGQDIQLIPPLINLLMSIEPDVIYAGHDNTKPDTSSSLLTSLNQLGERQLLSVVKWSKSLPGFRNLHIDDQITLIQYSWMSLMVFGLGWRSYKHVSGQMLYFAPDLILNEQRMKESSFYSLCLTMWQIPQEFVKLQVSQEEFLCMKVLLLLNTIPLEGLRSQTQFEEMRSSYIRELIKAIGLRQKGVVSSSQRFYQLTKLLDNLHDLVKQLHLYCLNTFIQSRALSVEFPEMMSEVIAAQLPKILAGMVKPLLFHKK

SMILES	Ki [1]	Ki [2]
COc1cccc2c1-c1ccc3c(c1C(c1cc(C)cc(N4CCCC4)c1)O2)C(C)=CC(C)(C)N3 (stereo not shown) [Example 113, 2,5-Dihydro-10-methoxy-2,2,4-trimethyl-5-[3-methyl-5-(1H-pyrrolidin-1-yl)phenyl]1H-[1]benzopyrano[3,4-f]quinoline]	9.7 nM	≥ 10000 nM
C=CCNc1cc(C)cc(C2Oc3cccc(OC)c3-c3ccc4c(c32)C(C)=CC(C)(C)N4)c1 (stereo not shown) [Example 115]	17 nM	≥ 10000 nM
COc1cccc2c1-c1ccc3c(c1C(c1cc(C)cc(NC(=O)N(C)C)c1)O2)C(C)=CC(C)(C)N3 (stereo not shown) [Example 118, N′-[3-(2,5-Dihydro-10-methoxy-2,2,4-trimethyl-1H-1benzopyrano[3,4-f]quinolin-5-yl)-5-methylphenyl]-N,N-dimethylurea]	43 nM	≥ 10000 nM
COc1cccc2c1-c1ccc3c(c1C(=Cc1ccc(Cl)cc1)O2)C(C)=CC(C)(C)N3 [Example 121, 5-[(4-chlorophenyl)methylene]-2,5-dihydro-10-methoxy-2,2,4-trimethyl-1H-[1]benzopyrano[3,4-f]quinoline]	11.3 nM	672 nM
COc1cccc2c1-c1ccc3c(c1C(=Cc1cccc(C(F)(F)F)c1)O2)C(C)=CC(C)(C)N3 [Example 122, 2,5-Dihydro-10-methoxy-2,2,4-trimethyl-5-[[3-(trifluoromethyl)phenyl]methylene-]1H-[1]-benzopyrano[3,4-f]quinoline]	11.8 nM	1410 nM
COc1cccc2c1-c1ccc3c(c1C(=Cc1ccccc1Cl)O2)C(C)=CC(C)(C)N3 [Example 124]	3.2 nM	1610 nM
COc1cccc2c1-c1ccc3c(c1C(=Cc1c(Cl)cccc1Cl)O2)C(C)=CC(C)(C)N3 [Example 125]	36.6 nM	≥ 10000 nM
COc1cccc2c1-c1ccc3c(c1C(=Cc1ccccc1F)O2)C(C)=CC(C)(C)N3 [Example 126]	2.9 nM	1410 nM
COc1cccc2c1-c1ccc3c(c1C(c1cccs1)O2)C(C)=CC(C)(C)N3 (stereo not shown) [Example 129, 2,5-Dihydro-10-methoxy-2,2,4-trimethyl-5-(2-thienyl)-1H-[1]benzopyrano[3,4-f]quinoline]	5.5 nM	3620 nM
C=CCC1Oc2ccc(OC)c(OC)c2-c2ccc3c(c21)C(C)=CC(C)(C)N3 (stereo not shown) [Example 130, 2,5-Dihydro-9,10-dimethoxy-2,2,4-trimethyl-5-(2-propenyl)-1H-[1]benzopyrano[3,4-f]quinoline]	11.9 nM	1050 nM
COc1cccc2c1-c1ccc3c(c1C(C1C=CCCC1(C)C)O2)C(C)=CC(C)(C)N3 (stereo not shown) [Example 140]	13 nM	≥ 10000 nM
COc1cccc2c1-c1ccc3c(c1C(C1CCC=C(CO)C1)O2)C(C)=CC(C)(C)N3 (stereo not shown) [Example 150, 2,5-Dihydro-10-methoxy-5-(3-hydroxymethyl-3-cyclohexenyl)-2,2,4-trimethyl-1H-[1]benzopyrano[3,4-f]quinoline]	106 nM	≥ 10000 nM
COc1cccc2c1-c1ccc3c(c1C(c1c[nH]c4ccccc14)O2)C(C)=CC(C)(C)N3 (stereo not shown) [Example 151, 2,5-Dihydro-10-methoxy-5-(3-indolyl)-2,2,4-trimethyl-1H-[1]benzopyrano[3,4-f]quinoline]	298 nM	≥ 10000 nM
COc1cccc2c1-c1ccc3c(c1[C@H]([C@@H]1C=C(C)CCC1)O2)C(C)=CC(C)(C)N3 [Example 154]	0.7 nM	≥ 10000 nM
COc1cccc2c1-c1ccc3c(c1[C@H]([C@H]1C=C(CO)CCC1)O2)C(C)=CC(C)(C)N3 [Example 155]	0.86 nM	≥ 10000 nM
COc1cccc2c1-c1ccc3c(c1[C@H]([C@H]1C=C(C)CCC1)O2)C(C)=CC(C)(C)N3 [Example 157, (−)-(5S,3′R) 2,5-Dihydro-10-methoxy-5-(1-methyl-3-cyclohexenyl)-2,2,4-trimethyl-1H-[1]benzopyrano[3,4-f]quinoline]	1.5 nM	433 nM
COc1cccc2c1-c1ccc3c(c1[C@@H]([C@@H]1C=C(C)CCC1)O2)C(C)=CC(C)(C)N3 [Example 158]	48 nM	≥ 10000 nM

Further lines, results first:

Ki [1]	Ki [2]	SMILES
7.2 nM	≥ 10000 nM	COCCNc1cc(C)cc(C2Oc3cccc(OC)c3-c3ccc4c(c32)C(C)=CC(C)(C)N4)c1 (stereo not shown) [Example 116, 3-(2,5-Dihydro-10-methoxy-2,2,4-trimethyl-1H-[1]benzopyrano[3,4-f]quinolin-5-yl)-N-(2-methoxyethyl)-5-methylbenamine]
6.9 nM	≥ 10000 nM	COc1cccc2c1-c1ccc3c(c1C(c1cccc(NCc4ccccc4)c1)O2)C(C)=CC(C)(C)N3 (stereo not shown) [Example 119, N-[3-(2,5-Dihydro-10-methoxy-2,2,4-trimethyl-1H-[1]benzopyrano[3,4-f]quinolin-5-yl)phenyl]benzenemethanamine]
30.3 nM	6240 nM	COc1cccc2c1-c1ccc3c(c1C(=Cc1cc(Cl)cc(Cl)c1)O2)C(C)=CC(C)(C)N3 [Example 120, 5-[(3,5-dichlorphenyl)methylen]-2,5-dihydro-10-methoxy-2,2,4-trimethyl-1H-[1]benzopyrano[3,4-f]puinoline]
6.1 nM	9570 nM	COc1cccc2c1-c1ccc3c(c1C(=Cc1c(F)cccc1F)O2)C(C)=CC(C)(C)N3 [Example 123]
29.3 nM	≥ 10000 nM	COc1cccc2c1-c1ccc3c(c1C(=CC1=NC(C)(C)CO1)O2)C(C)=CC(C)(C)N3 [Example 127, 2,5-Dihydro-10-methoxy-2,2,4-trimethyl-5-[(4,5-dihydro-4,4-dimethyl-2-oxazolyl)methylene]-1H-[1]benzopyrano[3,4-f]quinoline]
5.9 nM	≥ 10000 nM	COc1cccc2c1-c1ccc3c(c1C(=Cc1ccccn1)O2)C(C)=CC(C)(C)N3 [Example 128, 2,5-Dihydro-10-methoxy-2,2,4-trimethyl-5-(2-pyridinylmethylene)-1H-[1]benzopyrano[3,4-f]quinoline]
7.71 nM	996 nM	COc1ccc2c(c1OC)-c1ccc3c(c1C(C1C=CCCC1)O2)C(C)=CC(C)(C)N3 (stereo not shown) [Example 131, 5-(2-Cyclohexen-1-yl)-2,5-dihydro-9,10-dimethoxy-2,2,4-trimethyl-1H-[1]benzopyrano[3,4-f]quinoline]
230 nM	9890 nM	C=C(C)CCC1Oc2cccc(OC)c2-c2ccc3c(c21)C(C)=CC(C)(C)N3 (stereo not shown) [Example 132, 2,5-Dihydro-10-methoxy-5-(3-methyl-3-butenyl)-2,2,4-trimethyl-1H-[1]benzopyrano[3,4-f]quinoline]
235 nM	4800 nM	C=CC1(C2Oc3cccc(OC)c3-c3ccc4c(c32)C(C)=CC(C)(C)N4)CCCCC1 (stereo not shown) [Example 139, 2,5-Dihydro-10-methoxy-5-(1-ethenyl-1-cyclohexyl)-2,2,4-trimethyl-1H-[1]benzopyrano[3,4-f]quinoline]
0.9 nM	4100 nM	COc1cccc2c1-c1ccc3c(c1[C@@H]([C@@H]1C=C(CO)CCC1)O2)C(C)=CC(C)(C)N3 [Example 156, (+) (5R,3′S) 2,5-Dihydro-10-methoxy-5-(1-hydroxymethyl-3-cyclohexenyl)-2,2,4-trimethyl-1H-[1]benzopyrano[3,4-f]quinoline]
3.8 nM	1840 nM	COc1cccc2c1-c1ccc3c(c1C(C1C=C(CCl)CCC1)O2)C(C)=CC(C)(C)N3 (stereo not shown) [Example 159]
1.8 nM	≥ 10000 nM	COCC1=CC(C2Oc3cccc(OC)c3-c3ccc4c(c32)C(C)=CC(C)(C)N4)CCC1 (stereo not shown) [Example 160]
